# Reference: patent publication US20250127167A1, “ANTIMICROBIAL PEPTIDES” (priority 2021, published 2025)
# Entries after “also recorded” stand apart in the source; their conditions may differ. Like-named read-outs stand apart in the source and are kept apart here. Where a SMILES comes first, the peptide text is derived from it. [ ]: non-standard residue; d: D form. Phe(4-F) = N[C@@H](Cc1ccc(F)cc1)C(=O)O; Dopa = N[C@@H](Cc1ccc(O)c(O)c1)C(=O)O
# Assays:
# T4 bacteriophage [1] = experiment: Antiviral activity for coatings against T4 bacteriophage (bacteriophage plaque assay); type: cell-based, Escherichia coli bacteriophage T4; details: for virus titer of bacteriophage T4 on dipeptide coatings: 10 mg/mL drop-casted three times, bare glass 29000±2000 PFU/mL; for virus titer of bacteriophage T4 on dipeptide coatings / viral titer of T4 bacteriophage / virus titer of T4 bacteriophage: 24 h; for reduction of the viral titer by dipeptide coatings: versus bare glass; for virus titer of T4 bacteriophage: 3-layer coating on glass, bare glass 13579±2839
# Method: The antiviral activity performance was measured according to work by Kim et al. and Matsumoto et al. with some modification. The peptide coatings were prepared as described before. We used T4 bacteriophage as the virus when we measured the antiviral activity. Bacteriophage suspension was propagated on E. coli (ATCC 11303) according to ISO 18061, which was grown as the host strain. The mixture obtained by adding 100 μL of fresh T4 phage to an overnight culture of E. coli was incubated for 4 h in a 10 mL LB phage at 37° C. After multiplication, the virus was collected by centrifugation at 4000×g for 10 min at room temperature. The concentration of T4 bacteriophage was measured using the soft agar overlay (double-agar layer) plaque assay method. The supernatant containing the bacteriophage culture was filtrated through cellulose acetate filters (Millipore Acrodisc; the pore sizes were 0.45 μm and 0.22 μm) before use (the final concentration of bacteriophage was 10^9 PFU/mL).
# Ten decimal serial dilutions of the virus suspension were prepared by LB phage. The aqueous suspensions for the E. coli and T4 bacteriophage inactivation experiments contained sample surfaces having dimensions of 1*1 cm and T4 phage at 1.0×10^6 plaque-forming units (PFU)/mL. As a positive control, we also added 16 μL 1.0×10^6 plaque-forming units (PFU)/mL bacteriophage T4 on bare glass and then treated the surface by a UV irradiation (long wave ultraviolet 365 nm) for 3 h. Next, the phages were incubated under humid conditions at room temperature (25° C.) in a dark room for 24 h. After incubation, the phages were harvested by shaking with 2 mL SCDLP broth for 15 min to stop the incubation. The T4 in SCDLP bacteriophage was diluted with LB phage 10-fold. Subsequently, samples and bacteria were mixed with 0.6% agarose. Then the mixture was spread out on 1.5% LB agar to form a double agar layer. The plate was incubated at 37° C. for 18 h to form the plaques. The antiviral activity was defined and calculated as eq 2 below: The initial virus titer (No) and the virus titer after incubation (N) were calculated by counting the plaque number. For each sample, 9 repeats were performed to assess the antiviral activity.
# The antiviral activity performance was measured according to our previous work. Briefly, 10 decimal serial dilutions of the virus suspension were prepared by LB phage. The aqueous suspensions for the E. coli and T4 bacteriophage inactivation experiments contained sample surfaces with dimensions of 1*1 cm and T4 phage at 1.0×106 plaque-forming units (PFU)/mL. Next, the phages were incubated under humid conditions at room temperature (25° C.) in a dark room for 24 h. After incubation, the phages were harvested by shaking them with 2 mL SCDLP broth for 15 min to stop the incubation. The T4 in the SCDLP bacteriophage was diluted with LB phage 10-fold. Subsequently, samples and bacteria were mixed with 0.6% agarose. Then, the mixture was spread out on 1.5% LB agar to form a double agar layer. The plate was incubated at 37° C. for 18 h to form the plaques. The antiviral activity was defined and calculated as follows: The initial virus titer (NO) and the virus titer after incubation (N) were calculated by counting the plaque number. For each sample, 9 repeats were performed to assess the antiviral activity.
# T4 bacteriophage [2] = test system: T4 bacteriophage
# Method: All the tripeptide powders were firstly dissolved into ethanol and diluted by TDW. The solutions were stirring for 3 h (150 rpm, room temperature) for complete self-assembly. The final concentration is 10 mg/mL. […] As a control, single amino acids (L-DOPA, L-Phenylalanine, and 4-Fluoro-L-phenylalanine) were also used to examine their antiviral activity. To further evaluate the antiviral activity for the peptide assemblies, the antiviral MIC for traditional Ag and Cu nanoparticles were also tested. The stock solutions were two-fold diluted using LB phage to obtain a series of peptide concentrations until the lowest concentration needed was achieved. Next, the 100 μL T4 bacteriophage (10^5 PFU/mL) and 100 μL diluted peptide solutions were transferred into 800 μL LB phage and then the samples were shaken at 150 rpm at room temperature. After 24 h incubation, the samples were centrifuged at 14000 g for 10 min to precipitate the peptide particles. Supernatants were collected and then 10-fold diluted once. Then, the 20 μL supernatants were mixed with 25 μL bacteria (E. coli. ATCC11303) in 1 mL warm 0.6% agarose. Then the mixture was spread out on 1.5% LB agar to form a double agar layer. The plate was incubated at 37° C. for 18 h to form the plaques. The lowest concentration of peptides that prevented virus growth is defined as the antiviral minimum inhibitory concentration (MIC).
# A series of two-fold diluted peptide solutions (1000, 500, 250, 125, 62.5, 31.25, 15.625, and 7.8125 µg/mL) was prepared to measure the antiviral MIC. Next, 100 μL T4 bacteriophage (10^5 PFU/mL) and 100 μL diluted peptide solutions were transferred into 800 μL LB phage; then, the samples were shaken at 150 rpm at room temperature. After 24 h incubation, the samples were centrifuged at 14000×g for 10 min to precipitate the peptide particles. Supernatants were collected and then 10-fold diluted once. Next, the 20 μL supernatants were mixed with 25 μL bacteria (E. coli. ATCC11303) in 1 mL of warm 0.6% agarose. Then, the mixture was spread out on 1.5% LB agar to form a double agar layer. The plate was incubated at 37° C. for 18 h to form plaques. The lowest concentration of peptides that prevented virus growth is defined as the antiviral minimum inhibitory concentration (MIC). L-DOPA, L-phenylalanine, L-Phe(4F), Phe(4F)-Phe(4F), and diphenylalanine were used as controls.
# [3] = Stability of peptide coatings (XPS after immersing or washing); type: physicochemical; details: 3-layer coating
# Method: X-ray photoelectron spectroscopy (XPS) analyses were performed by using an AXIS Ultra X-ray photoelectron spectrometer (Kratos Analytical, Ltd., Manchester, UK). The sample's take-off angle was 90°. The vacuum pressure in the analyzing chamber was maintained at 2×10^−9 Torr. High-resolution XPS spectra were collected for F is, O is, C is, and N is peaks with 20 eV pass energy and 0.1 eV step size. Data analyses were carried out using Kratos Vision data reducing processing software (Kratos Analytical, Ltd.) and Casa XPS (Casa Software, Ltd.).
# (§1) To examine the coating stabilities, peptide coatings were immersed into TDW for 5 min or washed with 2 mL TDW three times and then dried at room temperature. X-ray photoelectron spectroscopy (XPS) analyses were performed for the immersed and washed coatings. Moreover, peptide coatings were wiped with a finger at a load of 1 g and then water contact angle measurements were performed using the same method as described in the Contact angle measurements section.
# [4] = Water contact angle measurements of coated glass; type: physicochemical; details: for water contact angle after wiping: 3-layer coating, wiped at a load of 1 g
# Method: Contact angle measurements were examined by using a Theta Lite optical tensiometer (Attension, Finland). Each experimental measurement consisted of three repeats.
# as §1
# Canine coronavirus (CCV) = type: cell-based; details: for log (TCID50/mL) of CCV: 3-layer coating, 3 h incubation, uncoated glass 4.77±0.12; for effect on CCV (in words): 3-layer coatings / controls
# fruit and plant viruses = experiment: Antiviral activity against fruit viruses
# Excerpt: The potential antiviral activity of DOPA-Phe(Br)—OH against fruit viruses and other microbial sources was also investigated.
# [5] = Table 1, tripeptide assemblies, single amino acids and metal nanoparticles, 24 h incubation
compound,measurement,setting,value
NC(=O)[C@H](Cc1ccc(F)cc1)NC(=O)[C@@H](N)Cc1ccc(O)c(O)c1 [DOPA-Phe(4F)-NH2] (H-[Dopa]-[Phe(4-F)]-NH2),virus titer of bacteriophage T4 on dipeptide coatings,T4 bacteriophage [1],no viruses were detected
same,reduction of the viral titer by dipeptide coatings,T4 bacteriophage [1],~4 logs
same,antiviral activity against T4 bacteriophage (in words),T4 bacteriophage [2]; in solution,exhibited antiviral activity
same,Antiviral MIC,"T4 bacteriophage [2]; in solution, T4 bacteriophage",62.5 µg/mL
COC(=O)[C@H](Cc1ccc(F)cc1)NC(=O)[C@H](Cc1ccc(F)cc1)NC(=O)[C@@H](N)Cc1ccc(O)c(O)c1 [DOPA-Phe(4F)-Phe(4F)-OMe] (H-[Dopa]-[Phe(4-F)]-[Phe(4-F)]-OMe; N-terminus assumed),XPS signals after immersing in TDW for 5 min or washing three times,[3],did not decrease
same,reduction of viral titer compared with bare glass,T4 bacteriophage [1]; 1 layer coating,79%
same,reduction rate (log (N/No)) of virus titers,T4 bacteriophage [1]; 1 layer coating,−0.7
same,viral titer of T4 bacteriophage,T4 bacteriophage [1]; 1 layer coating on glass,2610±369 PFU/mL
same,reduction of viral titer compared with bare glass,T4 bacteriophage [1]; 2 layers coating,91%
same,reduction rate (log (N/No)) of virus titers,T4 bacteriophage [1]; 2 layers coating,−1.1
same,viral titer of T4 bacteriophage,T4 bacteriophage [1]; 2 layers coating on glass,1111±201 PFU/mL
same,reduction of virus titers compared to the glass surfaces,T4 bacteriophage [1]; 3-layer coating,3 log
same,reduction of virus titers compared to the stock solution,T4 bacteriophage [1]; 3-layer coating,6 log
same,virus titer of T4 bacteriophage,T4 bacteriophage [1],3±6 PFU/mL
same,reduction of viral titer compared with bare glass,T4 bacteriophage [1]; 3 layer coating,99.9%
same,reduction rate (log (N/No)) of virus titers,T4 bacteriophage [1]; 3 layers coating,−3.7
same,water contact angle,"[4]; 1 layer on glass, bare glass 12±2°",23±2 °
same,water contact angle,[4]; 2 layers on glass,34±2 °
same,water contact angle after wiping,[4],33±1 °
same,water contact angle,[4]; 3 layers on glass,38±4 °
same,log (TCID50/mL) of CCV,Canine coronavirus (CCV),below the detection limit
same,Antiviral MIC,T4 bacteriophage [2]; [5],31 µg/mL
NC(=O)[C@H](Cc1ccccc1)NC(=O)[C@@H](N)Cc1ccc(O)c(O)c1 [DOPA-Phe-NH2] (H-[Dopa]-Phe-NH2; N-terminus assumed),virus titer of bacteriophage T4 on dipeptide coatings,T4 bacteriophage [1],no viruses were detected
same,reduction of the viral titer by dipeptide coatings,T4 bacteriophage [1],~4 logs
same,Antiviral MIC,T4 bacteriophage [2]; 24 h,125.00 µg/mL
same,antiviral activity against T4 bacteriophage (in words),T4 bacteriophage [2]; in solution,exhibited antiviral activity
same,Antiviral MIC,"T4 bacteriophage [2]; in solution, T4 bacteriophage",125 µg/mL
COC(=O)[C@H](Cc1ccccc1)NC(=O)[C@H](Cc1ccccc1)NC(=O)[C@@H](N)Cc1ccc(O)c(O)c1 [DOPA-Phe-Phe-OMe] (H-[Dopa]-Phe-Phe-OMe; N-terminus assumed),XPS signals after immersing in TDW for 5 min or washing three times,[3],did not change appreciably
same,reduction of virus titers compared to the glass surfaces,T4 bacteriophage [1]; 3-layer coating,0.2 log
same,virus titer of T4 bacteriophage,T4 bacteriophage [1],8029±205 PFU/mL
same,reduction rate (log (N/No)) of virus titers,T4 bacteriophage [1]; 3 layers coating,−0.2
same,water contact angle after wiping,[4],25±2 °
same,water contact angle,[4]; 3 layers on glass,29±1 °
same,log (TCID50/mL) of CCV,Canine coronavirus (CCV),below the detection limit
same,Antiviral MIC,T4 bacteriophage [2]; [5],62 µg/mL
"N[C@@H](Cc1ccc(O)c(O)c1)C(=O)O [L-DOPA, 3,4-dihydroxy-L-phenylalanine]",antiviral activity of drop-casted controls against T4 bacteriophage (in words),"T4 bacteriophage [1]; drop-casted three times / deposited on glass, compared to a glass surface",did not decrease the viral titers
same,log (TCID50/mL) of CCV,Canine coronavirus (CCV),4.37±0.31 log (TCID50/mL)
same,effect on CCV (in words),Canine coronavirus (CCV),do not appreciably affect the viability of CCV
same,effect on CCV (in words),Canine coronavirus (CCV); listed as DOPA,did not show any antiviral activity
same,antiviral activity against T4 bacteriophage (in words),"T4 bacteriophage [2]; in solution, listed as DOPA",did not show any antiviral activity
"N[C@@H](Cc1ccc(F)cc1)C(=O)O [L-Phe(4F), 4-Fluoro-L-phenylalanine]",antiviral activity against T4 bacteriophage (in words),T4 bacteriophage [2]; in solution,did not decrease the viral titer
same,antiviral activity against T4 bacteriophage (in words),"T4 bacteriophage [2]; in solution, listed as 4-Fluoro-L-phenylalanine",no antiviral activity
"N[C@@H](Cc1ccccc1)C(=O)O [L-Phe, L-phenylalanine]",effect on CCV (in words),Canine coronavirus (CCV),did not show any antiviral activity
same,antiviral activity against T4 bacteriophage (in words),"T4 bacteriophage [2]; in solution, listed as L-Phenylalanine",no antiviral activity
DOPA-Phe(Br)—NH2,eradication of fruit and plant viruses,fruit and plant viruses,capable of eradicating fruit and plant viruses
DOPA-Phe(Br)—OH,eradication of fruit and plant viruses,fruit and plant viruses,capable of eradicating fruit and plant viruses
H-Phe-Phe-OH [Diphenylalanine],antiviral activity of drop-casted controls against T4 bacteriophage (in words),T4 bacteriophage [1],did not decrease the viral titers; also recorded: did not exhibit antiviral activity
same,log (TCID50/mL) of CCV,Canine coronavirus (CCV),4.67±0.42 log (TCID50/mL)
same,effect on CCV (in words),Canine coronavirus (CCV),do not appreciably affect the viability of CCV; also recorded: did not show any antiviral activity
same,antiviral activity against T4 bacteriophage (in words),"T4 bacteriophage [2]; in solution, listed as Phe-Phe",did not decrease the viral titer
same,antiviral activity against T4 bacteriophage (in words),"T4 bacteriophage [2]; in solution, listed as diphenylalanine",did not show any antiviral activity
Phe(4F)-Phe(4F)—OMe [Phe(4F)-Phe(4F)-Ome],antiviral activity against T4 bacteriophage (in words),T4 bacteriophage [2]; in solution,did not decrease the viral titer
